In patent US11230535B2, “CFTR regulators and methods of use thereof” (THE REGENTS OF THE UNIVERSITY OF CALIFORNIA, priority 2015, dated 2022):
“Also recorded” adds a separate entry of the source.

What was measured:
CaCC in HT-29 cells = experiment: Non-TMEM16A CaCC plate reader assay in HT-29 cells expressing YFP; assay type: cell-based; conditions: 10 μM
Description: (§1) Platereader assays of chloride channel function. CFTR activity was assayed as described. FRT cells co-expressing YFP and wildtype CFTR were washed with phosphate-buffered saline (PBS) and then incubated for 10 min with test compounds in PBS containing 125 nM forskolin. I^− influx was measured in a plate reader with initial baseline read for 2 s and then for 12 s after rapid addition of an I^−-containing solution. TMEM16A activity was assayed similarly as described using FRT cells co-expressing YFP and TMEM16A. Activity of non-TMEM16A CaCC was assayed as described in HT-29 cells expressing YFP. In each assay initial rates of I^− influx were computed as a linear measure of channel function.

TMEM16A = target: T1, TMEM16A (Homo sapiens, UniProt Q5XXA6); experiment: TMEM16A plate reader assay in FRT cells expressing YFP and TMEM16A; assay type: cell-based; conditions: 10 μM
T1 construct: expressed in transfected cells; host or cells: Fischer rat thyroid (FRT) cells stably co-expressing YFP-H148Q
T1 sequence (Q5XXA6 1-986): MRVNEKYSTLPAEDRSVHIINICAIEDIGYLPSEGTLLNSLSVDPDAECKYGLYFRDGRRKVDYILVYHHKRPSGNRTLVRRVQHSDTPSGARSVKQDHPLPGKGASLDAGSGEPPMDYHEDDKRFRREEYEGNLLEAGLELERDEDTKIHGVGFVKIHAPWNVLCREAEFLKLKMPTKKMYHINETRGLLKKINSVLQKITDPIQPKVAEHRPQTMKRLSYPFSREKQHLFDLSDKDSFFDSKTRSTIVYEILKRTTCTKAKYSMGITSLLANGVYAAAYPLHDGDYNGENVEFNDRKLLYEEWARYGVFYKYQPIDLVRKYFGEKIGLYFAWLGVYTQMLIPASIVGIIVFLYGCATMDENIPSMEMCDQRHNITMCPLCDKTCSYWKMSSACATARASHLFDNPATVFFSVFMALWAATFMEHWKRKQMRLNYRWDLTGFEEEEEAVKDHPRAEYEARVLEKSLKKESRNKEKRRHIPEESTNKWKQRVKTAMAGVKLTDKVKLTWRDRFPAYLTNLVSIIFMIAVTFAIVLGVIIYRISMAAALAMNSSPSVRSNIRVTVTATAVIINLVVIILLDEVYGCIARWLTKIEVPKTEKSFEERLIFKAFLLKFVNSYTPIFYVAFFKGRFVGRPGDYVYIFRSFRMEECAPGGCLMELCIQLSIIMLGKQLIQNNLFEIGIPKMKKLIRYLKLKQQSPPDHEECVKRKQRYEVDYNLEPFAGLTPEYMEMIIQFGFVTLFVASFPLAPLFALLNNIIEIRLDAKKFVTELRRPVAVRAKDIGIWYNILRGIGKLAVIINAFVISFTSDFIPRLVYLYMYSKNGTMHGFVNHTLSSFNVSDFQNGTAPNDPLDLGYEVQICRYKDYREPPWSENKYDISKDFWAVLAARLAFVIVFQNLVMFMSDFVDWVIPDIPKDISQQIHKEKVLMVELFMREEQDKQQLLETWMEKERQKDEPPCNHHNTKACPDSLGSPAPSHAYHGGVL
Description: as §1

[1] = system: human bronchial epithelial (HBE) cells; experiment: Short-circuit current in primary human bronchial epithelial (HBE) cells; assay type: cell-based; conditions: for short-circuit current responses to ENaC, maximal forskolin or ATP: 10 μM, 10 min pretreatment
Description: FIGS. 16A-16E. Characterization of 6k and 12. FIG. 16A. Cellular cAMP in FRT cells following incubation for 10 min with 10 μM 6k or 12, without or with 90 nM forskolin (fsk), as well as forskolin alone (90 nM and 20 μM) and forskolin (20 μM)+IBMX (100 μM) (mean±S.E.M., n=4). FIG. 16B. Cytoplasmic calcium measured by Fluo-4 fluorescence. FRT cells were pretreated for 5 min with 10 μM 6k or 12 (or control), with 100 μM ATP added as a calcium agonist as indicated. FIG. 16C. TMEM16A activity measured in FRT cells expressing YFP showing no inhibition (left, iodide+ATP addition) or activation (right, iodide addition) by 10 μM 6k or 12. FIG. 16D. […] FIG. 16E. (left) Short circuit-current in primary cultures of human bronchial epithelial cells in response to agonists and inhibitors that target key ion transport processes: 20 μM amiloride (ami); 20 μM forskolin (fsk); 10 μM CFTRinh-172; 100 μM ATP. Experiments were done without activator or following 10-min preincubation with 10 μM 6k or 12 (right). CFTR activation by 12 after 100 nM forskolin (20 μM amil, 10 μM CFTRinh-172, 100 μM ATP). Studies in B-E are representative of 2-4 separate sets of experiments.
Short-circuit current measurement. Short-circuit current measurements were done as described. Briefly, Snapwell (Corning Costar, Corning, N.Y.) inserts containing CFTR-expressing FRT cells or human bronchial epithelial cells were mounted in Ussing chambers (Physiological Instruments, San Diego, Calif.). For FRT cells the hemichambers were filled with 5 ml of HCO3^−-buffered solution (basolateral) and half-Cl^− solution (apical), and the basolateral membrane was permeabilized with 250 μg/ml amphotericin B. Symmetrical HCO3^−-buffered solutions were used for human bronchial epithelial cells. Solutions were bubbled with 95% O2/5% CO2 and maintained at 37° C., and short-circuit current was measured on a DVC-1000 voltage clamp (World Precision Instruments Inc., Sarasota, Fla.) using Ag/AgCl electrodes and 3 M KCl agar bridges.

cytoplasmic calcium = experiment: Cytoplasmic calcium by Fluo-4 fluorescence in FRT cells; assay type: cell-based, rat; conditions: 10 μM; for inhibition of the ATP-stimulated elevation in cytoplasmic calcium: 100 μM ATP
Description: cAMP and Ca^2+ assays. FRT cells expressing wildtype CFTR were cultured in 12-well plates. After washing with PBS, cells were incubated for 10 min with compounds in the absence or presence of 90 nM forskolin and then lysed. Lysates were assayed for cAMP content using a cAMP immunoassay kit (Parameter cAMP Immunoassay Kit, R&D Systems, Minneapolis, Minn.). For cytoplasmic calcium measurements, FRT cells in 96-well black-walled microplates were loaded with Fluo-4 NW (Invitrogen, Carlsbad, Calif.) and Fluo-4 fluorescence was measured with a plate reader equipped with syringe pumps and monochromators.

[2] = Compound accumulation in systemic tissues after 14 days topical dosing; assay type: in vivo, mouse; conditions: for amount in mouse blood, brain, liver and kidney (below limit of detection): two weeks, three times per day topical 0.1 nmol

Structure (SMILES)	effect on calcium-activated chloride channels in HT-29 cells (CaCC in HT-29 cells)	effect on calcium-activated chloride channels in TMEM16A-expressing FRT cells (TMEM16A)	short-circuit current responses to ENaC, maximal forskolin or ATP [1]	increase of cytoplasmic calcium (cytoplasmic calcium)	inhibition of the ATP-stimulated elevation in cytoplasmic calcium (cytoplasmic calcium)	systemic absorption, in words ([2]; topical)	amount in mouse blood, brain, liver and kidney (below limit of detection) [2]	CFTR activation in HBE cells after forskolin ([1]; 0.1 μM, following 100 nM forskolin)	CFTR activation in HBE cells without forskolin ([1]; absence of basal CFTR phosphorylation)
CCN(CC)c1nc(Nc2ccc3ncsc3c2)nc(OC(C(F)(F)F)C(F)(F)F)n1 [6k, N′-(1,3-Benzothiazol-6-yl)-N,N-diethyl-6-[(1,1,1,3,3,3-hexafluoropropan-2-yl)oxy]-1,3,5-triazine-2,4-diamine]	no activation; also recorded: neither inhibited nor activated	no inhibition; also recorded: neither inhibited nor activated	did not alter short-circuit current responses	did not	did not	–	–	–	–
CCN(CC)c1nc(Nc2ccccc2)nc(OC(C(F)(F)F)C(F)(F)F)n1 [CFTRact-K089, N,N-Diethyl-6-[(1,1,1,3,3,3-hexafluoropropan-2-yl)oxy]-N′-phenyl-1,3,5-triazine-2,4-diamine]	–	–	–	–	–	without detectable systemic absorption	< 10 fmol	–	–
Nc1ccc([N+](=O)[O-])cc1-c1nc2ccccc2n(Cc2ccccc2)c1=O [CFTRact-J027, 3-(2-amino-5-nitrophenyl)-1-benzylquinoxalin-2(1H)-one]	–	–	–	–	–	–	< 700 fmol	–	–
CNc1nc(Nc2ccccc2)nc(OCC(F)(F)C(F)F)n1 [compound 12, N-methyl-N′-phenyl-6-(2,2,3,3-tetrafluoropropoxy)-1,3,5-triazine-2,4-diamine]	no activation; also recorded: neither inhibited nor activated	no inhibition; also recorded: neither inhibited nor activated	did not alter short-circuit current responses	without causing cAMP or calcium elevation; also recorded: did not	did not	–	–	fully activated CFTR	did not activate CFTR
